# Source: ChEMBL document CHEMBL1157661 (Bioorg Med Chem, 2010)
# Legend:
# [1] = target: T1, Adenosine receptor A1 (Homo sapiens) (UniProt P30542); assay: Displacement of [3H]DPCPX from human recombinant adenosine A1 receptor expressed in CHO-A1 cell membrane at 10 uM; type: cell membranes
# T1 sequence (whole entry): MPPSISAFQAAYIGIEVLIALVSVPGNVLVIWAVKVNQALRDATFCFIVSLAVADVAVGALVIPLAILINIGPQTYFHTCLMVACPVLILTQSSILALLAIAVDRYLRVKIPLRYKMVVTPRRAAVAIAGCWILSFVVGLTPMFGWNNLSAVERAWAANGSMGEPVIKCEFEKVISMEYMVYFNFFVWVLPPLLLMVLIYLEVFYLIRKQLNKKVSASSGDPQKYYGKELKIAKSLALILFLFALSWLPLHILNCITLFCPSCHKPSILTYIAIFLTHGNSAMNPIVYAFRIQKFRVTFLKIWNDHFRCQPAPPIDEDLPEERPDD
# [2] = target: Adenosine receptor A2a (Homo sapiens) (UniProt P29274); assay: Displacement of [3H]ZM241385 from human recombinant adenosine A2A receptor expressed in human HeLa cell membrane at 10 uM; type: cell membranes
# Adenosine receptor A2a (Homo sapiens), sequence (P29274 whole entry): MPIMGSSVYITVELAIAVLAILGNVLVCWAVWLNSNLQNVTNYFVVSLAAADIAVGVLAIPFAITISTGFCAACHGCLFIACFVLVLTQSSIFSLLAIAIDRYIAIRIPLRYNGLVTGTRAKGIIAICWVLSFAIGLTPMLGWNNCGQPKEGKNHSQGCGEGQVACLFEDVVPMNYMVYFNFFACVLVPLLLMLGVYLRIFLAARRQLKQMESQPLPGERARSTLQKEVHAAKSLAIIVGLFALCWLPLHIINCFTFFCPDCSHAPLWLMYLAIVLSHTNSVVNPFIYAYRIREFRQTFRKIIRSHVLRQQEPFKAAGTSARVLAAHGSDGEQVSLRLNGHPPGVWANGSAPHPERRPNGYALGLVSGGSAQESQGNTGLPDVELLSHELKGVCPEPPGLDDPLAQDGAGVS
# [3] = target: T2, Adenosine receptor A2b (Homo sapiens) (UniProt P29275); assay: Displacement of [3H]DPCPX from human recombinant adenosine A2B receptor expressed in HEK293 cell membrane at 10 uM; type: cell membranes
# T2 sequence (whole entry): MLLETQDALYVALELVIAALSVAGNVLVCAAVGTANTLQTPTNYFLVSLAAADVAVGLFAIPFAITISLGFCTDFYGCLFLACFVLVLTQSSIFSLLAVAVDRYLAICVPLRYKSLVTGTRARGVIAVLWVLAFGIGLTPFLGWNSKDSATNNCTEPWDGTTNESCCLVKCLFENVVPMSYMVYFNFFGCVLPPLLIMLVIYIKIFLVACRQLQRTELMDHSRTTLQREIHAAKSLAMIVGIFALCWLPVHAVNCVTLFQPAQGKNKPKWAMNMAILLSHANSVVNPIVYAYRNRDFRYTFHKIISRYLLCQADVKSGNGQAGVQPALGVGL
# [4] = target: T3, Adenosine receptor A3 (Homo sapiens) (UniProt P0DMS8); assay: Displacement of [3H]NECA from human recombinant adenosine A3 receptor expressed in human HeLa cell membrane at 10 uM; type: cell membranes
# T3 sequence (whole entry): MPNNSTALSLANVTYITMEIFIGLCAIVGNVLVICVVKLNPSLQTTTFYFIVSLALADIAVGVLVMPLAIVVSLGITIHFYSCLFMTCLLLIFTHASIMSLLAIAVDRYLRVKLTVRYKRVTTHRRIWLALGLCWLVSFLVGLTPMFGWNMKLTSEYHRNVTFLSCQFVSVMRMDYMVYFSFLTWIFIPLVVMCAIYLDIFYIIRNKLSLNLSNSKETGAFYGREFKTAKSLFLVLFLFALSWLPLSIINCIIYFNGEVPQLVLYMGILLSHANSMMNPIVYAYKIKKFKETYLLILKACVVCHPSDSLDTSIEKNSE
# [5] = Solubility in water; type: physicochemical
# [6] = Solubility in glycerin; type: physicochemical
# [7] = Solubility in di(ethylene glycol); type: physicochemical
# Adenosine receptor A1 = target: T4, Adenosine receptor A1 (Homo sapiens, UniProt P30542); assay: Displacement of [3H]DPCPX from human recombinant adenosine A1 receptor expressed in CHO-A1 cell membrane; type: cell membranes
# T4 sequence (P30542 whole entry): T1 sequence (whole entry)
SMILES,inhibition [1],inhibition [2],inhibition [3],inhibition [4],solubility [5],solubility [6],solubility [7],Ki (Adenosine receptor A1)
Cn1c(=O)c2c(ncn2CCOCCOCCOCCN=[N+]=[N-])n(C)c1=O,24%,17%,3%,2%,–,–,–,–
COCCOCCOCc1nc2c([nH]1)c(=O)n(C)c(=O)n2C,37%,20%,10%,1%,14 mM,Insoluble,10 mM,–
C=CCCCCCCCCCOCCOCCOCCOCCn1cnc2c1c(=O)n(C)c(=O)n2C,53%,18%,47%,19%,–,–,–,5 µM
